Measured values from patent US8158811B2, “Unsaturated fatty hydroxy acid derivatives and the dermocosmetologic use thereof” (Pierre Fabre Dermo-Cosmetique, priority 2005, dated 2012).

Tests used:
Interleukin 8 [1] = assay: release of Interleukin 8 by keratinocytes NHK stimulated with PMA + calcium ionophore A23187 (ELISA); assay type: cell-based, human; conditions: for % inhibition of IL-8 release: 3 μg/ml, keratinocytes, PMA + A23187 6 hours; for % Inhibition a 3 μg/ml: IL8 release, NHK, PMA + A23187
Procedure: In this study, carried out using 96 well plates, we evaluated the activity of hydroxyl alkine acids on the production of Interleukin 8 produced in the keratinocytes by phorbol ester PMA and calcium ionophore A23187.
A suspension of keratinocytes in supplemented KSFM was divided between 96 well plates (3.10^4 cells/wells) and incubated for 16 hours at 37° C. under an atmosphere of 5% CO2. The keratinocytes were then rinsed with PBS in order to eliminate non adhering cells then exposed to the products to be tested included in non supplemented KSFM (which could interfere with the assay).
The concentration tested in culture was 3 μg/ml. This was retained after a preliminary test to evaluate cytotoxicity (neutral red) and is not cytotoxic.
3 wells were used for each treatment. Cells were preincubated for 60 minutes with the products to be tested then stimulated, in parallel to negative controls without stimulant: Phorbol Myristate Acetate (PMA) 1 μm+Calcium ionophore (A23187) 0.1 μm.
Incubation for 6 hours at 37° C. in a humid air atmosphere containing 5% CO2.
The culture medium for each of the wells was recovered, centrifuged at 3000 rpm and stored at −80° C.
Cytokine assay: IL8 was assayed using the ELISA kit immunoenzyme method (immunotech).
The results are given as percentage activity/stimulated control.
The compounds according to the invention were evaluated in terms of anti-inflammatory activity on the release of Interleukin 8 by human keratinocytes NHK stimulated by phorbol ester PMA+calcium ionophore A23187.

[2] = tested on: membrane lipids, fibroblast line L929; assay: TBARS test, lipid peroxidation after H2O2/Fe2+/Fe3+; assay type: cell-based, murin; conditions: 0.02 ng/ml, pretreated 16 hours
Description: In order to evaluate membrane changes, we measured lipid peroxidation by in vitro assay of complexes between the products of lipid oxidation and thiobarbituric acid. These complexes are called TBARS (thiobarbituric acid reactive substances) and give the test its name: TBARS Test.
In order to mimic chemical oxidative stress, we treated a fibroblast line (L929) with a complex consisting of hydrogen peroxide (H2O2) and iron (Fe^2+/Fe^3+) thus reconstituting the Fenton reaction which is the source of oxygenated free radicals and particularly the hydroxyl radical (OH°) (D. A Vessey et al. 1992): H2O2+Fe^2+→OH°+OH^−+Fe^3+
The products were evaluated on a murin fibroblast line L929. Cells were pretreated with different concentrations of the product for 16 hours and were then stimulated with the H2O2/Fe^2+/Fe^3+ complex (200 μM−1 mM) for 1 hour. • Stock solutions: 100 mg/ml ethanol, 4° C. • Final solutions: 0.02 ng/ml.
Peroxidation of membrane lipids was analysed by measuring TBARS (Protocol ref. PLN°2, according to Morliere et al, 1991).
[…]. TBARS assays are therefore expressed in pmole/μg of protein. Proteins and TBARS are assayed in the intracellular medium.
Using the TBARS calculation in pmole/μg protein, we calculated the protective efficacy of various products against the oxidation of lipid membranes.
Four separate experiments were carried out. Several compounds were evaluated in the course of these experiments (the test only allows 10 molecules to be evaluated at one time). The compounds were evaluated several times and were chosen as a function of the results obtained in another test which also measured anti-radical activity (assay test for activated oxygen species).
The model used in this experiment (Fenton reaction) triggers considerable lipid peroxidation of the L929 fibroblasts. This massive release of the hydroxyl radical OH° thus generates oxidative stress in the cells, particularly in the membranes. However, in this type of oxidative reaction, the products resulting from lipid peroxidation are internalized in the cells and TBARS are therefore assayed in the intracellular medium.

FATP4 = assay: keratinocyte differentiation, real-time RT-PCR of FATP4 transcripts; assay type: cell-based, human; conditions: NHK, 48 hours
Procedure: Normal human keratinocytes (NHK) proliferate and differentiate in vitro, forming stratified layers which mimic the basal organisation of the skin. Extracellular calcium concentrations in excess of 0.1 mM initiate a cascade of genome and non-genome events which take the keratinocytes from a proliferative phase towards a differentiation phase. Keratinocyte differentiation can then be evaluated by studying the expression of several markers such as keratins 1 and 10, transglutaminase 1, desaturase DES2, involucrine, FATP4 and ABCG1 transporters. We therefore evaluated the effect of certain hydroxyalcene carboxylic acids in an in vitro culture model.
Normal human keratinocytes are isolated from skin explants. They are cultured in KSFM medium (Gibco) with a low calcium content (0.1 mM) containing 25 μg/ml of BPE (bovine pituitary extract) and […] of EGF (epithelium growth factor). 24 hours after culturing, differentiation is triggered by the addition of calcium (final concentration 1.2 mM). The active ingredients are added or not at the same time as calcium at concentrations of 100 and 1 μg/ml in order to determine whether or not they have a potentialising effect on differentiation. Cells were then analysed 48 hours after the addition of calcium and these products.
Total RNA was extracted under cold conditions from keratinocytes.
After reverse transcription of mRNA into cDNA, PCRs were made up in 96 well plates (iCycler quantitative PCR apparatus, BioRad). Expression of transcripts of transglutaminase, desaturase (DES2), ABCG1 and FATP4 were standardized with respect to the expression of reference genes (GAPDH, UBC, HPRT).

Interleukin 8 [3] = assay: release of Interleukin 8 by keratinocytes NHK stimulated with PMA + calcium ionophore A23187 (ELISA); assay type: cell-based, human; conditions: IL8 release

| Compound | % inhibition of IL-8 release (Interleukin 8 [1]) | % membrane lipid protection, Mean [2] | Induction Factor vs Control (CaCl2 1.2 mM) FATP4 (FATP4; 1 μg/ml) | Induction Factor vs Control (CaCl2 1.2 mM) FATP4 (FATP4; 100 μg/ml) | % Inhibition a 3 μg/ml (Interleukin 8 [1]) | ED50 (Interleukin 8 [3]) |
| --- | --- | --- | --- | --- | --- | --- |
| O=C(O)C(F)=CCCCCCO (mixture of isomers) [n=4, R=H, Rn=H, R1=F] | Non-active | 36.54% | 1.3 | 1.4 |  |  |
| O=C(O)C=CCCCCO [n=3, R=H, Rn=H, R1=H] | 50% | 15.7% | 1.4 | 1.2 |  |  |
| O=C(O)C=CCCCCCO [n=4, R=H, Rn=H, R1=H] | 15% | 37.88% | 1.0 | 1.4 |  |  |
| O=C(O)/C=C/CCCCCCCCCCO [n=9, R=H, Rn=H, R1=H, 13-hydroxy-tridec-2t-enoic acid] | 16% | 8.72% | 1.2 | 4.5 |  |  |
| O=C(O)C(F)=CCCCCCCCCCCCO [n=10, R=H, Rn=H, R1=F, 14-hydroxy-tetradec-2-fluoro-2-enoic acid] | 30% | 13.13% | 1.0 | 2.3 |  |  |
| O=C(O)/C=C/CCCCCCCCCCCO [n=10, R=H, Rn=H, R1=H, 14-hydroxy-tetradec-2t-enoic acid] | 30% | 27.18% | 1.2 | 5.9 |  |  |
| O=C(O)C(F)=CCCCCCCCCCCCCCCO [n=13, R=H, Rn=H, R1=F, 17-hydroxy-heptadec-2-fluoro-2-enoic acid] | 107% | 7.39% | 2.2 |  | 107% | <3 µg/mL |
| O=C(O)/C=C/CCCCCCCCCCCCCCO [n=13, R=H, Rn=H, R1=H, 17-hydroxy-heptadec-2t-enoic acid] | 62% | 22.10% | 1.4 |  | 62% | <3 µg/mL |
